SMILES strings stand for the structures. Where a name gives a salt, the structure may show the parent alone.

The target in this test is T1, c-Met kinase (recombinant c-Met) (Homo sapiens, UniProt P08581).
T1 construct: 0.27 nM recombinant c-Met
T1 sequence (P08581 25-1390): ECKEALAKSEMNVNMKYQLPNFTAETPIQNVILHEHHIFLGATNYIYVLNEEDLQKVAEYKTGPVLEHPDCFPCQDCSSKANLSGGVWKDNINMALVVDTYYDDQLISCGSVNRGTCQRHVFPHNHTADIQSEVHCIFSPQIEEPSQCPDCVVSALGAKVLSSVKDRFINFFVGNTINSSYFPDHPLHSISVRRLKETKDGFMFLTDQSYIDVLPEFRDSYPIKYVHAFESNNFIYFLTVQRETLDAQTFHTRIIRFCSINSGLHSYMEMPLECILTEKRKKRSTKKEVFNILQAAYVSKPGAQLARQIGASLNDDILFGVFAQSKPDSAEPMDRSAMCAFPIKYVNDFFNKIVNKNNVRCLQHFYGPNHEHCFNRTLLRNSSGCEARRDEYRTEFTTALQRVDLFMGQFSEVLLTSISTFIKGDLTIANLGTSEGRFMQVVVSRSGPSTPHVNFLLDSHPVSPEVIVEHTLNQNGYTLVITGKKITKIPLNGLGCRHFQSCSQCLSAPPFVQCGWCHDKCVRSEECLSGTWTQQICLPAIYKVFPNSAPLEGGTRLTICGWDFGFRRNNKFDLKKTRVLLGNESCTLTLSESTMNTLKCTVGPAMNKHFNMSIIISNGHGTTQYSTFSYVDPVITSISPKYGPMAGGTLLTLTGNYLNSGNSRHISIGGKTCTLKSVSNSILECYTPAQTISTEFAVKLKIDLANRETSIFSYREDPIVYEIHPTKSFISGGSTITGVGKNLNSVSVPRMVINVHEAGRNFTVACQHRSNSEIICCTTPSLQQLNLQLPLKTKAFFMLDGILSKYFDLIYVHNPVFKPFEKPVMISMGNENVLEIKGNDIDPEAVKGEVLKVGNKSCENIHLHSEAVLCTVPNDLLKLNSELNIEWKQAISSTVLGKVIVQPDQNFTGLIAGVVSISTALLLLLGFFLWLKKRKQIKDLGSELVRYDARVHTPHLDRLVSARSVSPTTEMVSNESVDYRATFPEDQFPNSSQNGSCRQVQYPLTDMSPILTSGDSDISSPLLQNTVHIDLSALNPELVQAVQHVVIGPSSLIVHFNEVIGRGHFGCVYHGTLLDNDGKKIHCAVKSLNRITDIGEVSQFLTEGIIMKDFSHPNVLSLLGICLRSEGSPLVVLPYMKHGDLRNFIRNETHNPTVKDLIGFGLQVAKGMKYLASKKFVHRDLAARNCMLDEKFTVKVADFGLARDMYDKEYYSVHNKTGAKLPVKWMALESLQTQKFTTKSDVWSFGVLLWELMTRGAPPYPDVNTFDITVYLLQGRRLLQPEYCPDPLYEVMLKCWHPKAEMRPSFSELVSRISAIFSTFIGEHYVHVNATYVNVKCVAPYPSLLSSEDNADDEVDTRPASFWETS
Kind of test: In vitro kinase assay I (homogeneous time-resolved fluorescence tyrosine kinase assay). The test is classed as biochemical. The method, boiled down: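 Biotinylated peptide (0.5 μM) phosphorylated by 0.2 nM recombinant c-Met with 50 μM MgATP, 60 min at room temperature, pH 7.4, 5% DMSO. EDTA stop; HTRF read with Eu-anti-phosphotyrosine antibody and streptavidin-APC. IC50 from 4-parameter logistic fit.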
Turning to `CC(c1cccc(-c2ncc(OC3CCOCC3)cn2)c1)c1nn(-c2cnn(C)c2)ccc1=O` (single isomer, unassigned) [Example 211, 1-(1-methyl-1H-pyrazol-4-yl)-3-[(1S or R)-1-{3-[5-(tetrahydro-2H-pyran-4-yloxy)pyrimidin-2-yl]phenyl}ethyl]pyridazin-4(1H)-one], the IC50 (usually the midpoint of a concentration-inhibition curve) was < 100 nM.
In the case of `CCn1cc(-n2ccc(=O)c(C(C)c3cccc(-c4ncc(OCC5CCN(C(=O)OC(C)(C)C)CC5)cn4)c3)n2)cn1` (single isomer, unassigned) [Example 291, tert-butyl 4-({[2-(3-{(1R or S)-1-[1-(1-ethyl-1H-pyrazol-4-yl)-4-oxo-1,4-dihydropyridazin-3-yl]ethyl}phenyl)pyrimidin-5-yl]oxy}methyl)piperidine-1-carboxylate], the IC50 was < 100 nM.
Consider `CCOc1cnc(-c2cccc(Cc3nn(-c4cnn(C)c4)ccc3=O)c2)nc1CC` [Example 178, 3-[3-(5-ethoxy-4-ethylpyrimidin-2-yl)benzyl]-1-(1-methyl-1H-pyrazol-4-yl)pyridazin-4(1H)-one], for which the IC50 is < 100 nM.
On to `CCn1cc(-n2ccc(=O)c(C(C)c3cccc(-c4ncc(OCCO)cn4)c3)n2)cn1` (single isomer, unassigned) [Example 295, 1-(1-ethyl-1H-pyrazol-4-yl)-3-[(1R or S)-1-{3-[5-(2-hydroxyethoxy)pyrimidin-2-yl]phenyl}ethyl]pyridazin-4(1H)-one], for which the IC50 was < 100 nM.
The same measure for `Cn1cc(-n2ccc(=O)c(Cc3cccc4c3CNC4=O)n2)cn1` [Example 45, 4-{[1-(1-methyl-1H-pyrazol-4-yl)-4-oxo-1,4-dihydropyridazin-3-yl]methyl}-2,3-dihydro-1H-isoindol-1-one]: 1000 to 3000 nM; for `Cn1cc(-n2ccc(=O)c(Cc3cccc(-c4ncc(OCC5(O)CCOCC5)cn4)c3)n2)cn1` [Example 365, 3-(3-{5-[(4-hydroxytetrahydro-2H-pyran-4-yl)methoxy]pyrimidin-2-yl}benzyl)-1-(1-methyl-1H-pyrazol-4-yl)pyridazin-4(1H)-one]: < 100 nM.
Then `CCn1cc(-n2ccc(=O)c(Cc3cccc(-c4ncc(OCCN5CCOCC5)cn4)c3)n2)cn1` [Example 312, 1-(1-ethyl-1H-pyrazol-4-yl)-3-{3-[5-(2-morpholin-4-ylethoxy)pyrimidin-2-yl]benzyl}pyridazin-4(1H)-one], with < 100 nM.
Take `CCOc1cnc(-c2cccc(C(C)c3nn(-c4cnn(CC)c4)ccc3=O)c2)nc1` (single isomer, unassigned) [Example 246, 3-{(1R or S)-1-[3-(5-ethoxypyrimidin-2-yl)phenyl]ethyl}-1-(1-ethyl-1H-pyrazol-4-yl)pyridazin-4(1H)-one]: the IC50 is < 100 nM.
On to `Cn1cc(-n2ccc(=O)c(Cc3cccc(-c4ncc(OCC5CCOC5)cn4)c3)n2)cn1` (racemic) [Example 266, rac-1-(1-methyl-1H-pyrazol-4-yl)-3-{3-[5-(tetrahydrofuran-3-ylmethoxy)pyrimidin-2-yl]benzyl}pyridazin-4(1H)-one], for which the half-inhibitory concentration (IC50) is < 100 nM.
In the case of `Cn1cc(-n2ccc(=O)c(Cc3cccc(NC(=O)OCC(F)F)c3)n2)cn1` [Example 576, 2,2-difluoroethyl (3-{[1-(1-methyl-1H-pyrazol-4-yl)-4-oxo-1,4-dihydropyridazin-3-yl]methyl}phenyl)carbamate], the IC50 is < 100 nM.
The same measure for `Cn1cc(-n2ccc(=O)c(Cc3cccc(-c4nc[nH]n4)c3)n2)cn1` [Example 186, 1-(1-Methyl-1H-pyrazol-4-yl)-3-[3-(1H-1,2,4-triazol-3-yl)benzyl]pyridazin-4(1H)-one hydrochloride]: < 100 nM.
As to `Cn1cc(-n2ccc(=O)c(Cc3cccc(-c4ncc(OCC5CCOC(C)(C)C5)cn4)c3)n2)cn1` (racemic) [Example 269, rac-3-(3-{5-[(2,2-dimethyltetrahydro-2H-pyran-4-yl)methoxy]pyrimidin-2-yl}benzyl)-1-(1-methyl-1H-pyrazol-4-yl)pyridazin-4(1H)-one], the IC50 is < 100 nM.
`CC(C)COc1cnc(-c2cccc(Cc3nn(-c4cnn(C)c4)ccc3=O)c2)nc1` [Example 261, 3-{3-[5-(2-methylpropoxy)pyrimidin-2-yl]benzyl}-1-(1-methyl-1H-pyrazol-4-yl)pyridazin-4(1H)-one]: the 50% inhibitory concentration (IC50) is < 100 nM.
Then `CC(C)COC(=O)Nc1cccc(Cc2nn(-c3cnn(CCCC(=O)O)c3)ccc2=O)c1` [Example 180, 4-{4-[3-(3-{[(2-methylpropoxy)carbonyl]amino}benzyl)-4-oxopyridazin-1(4H)-yl]-1H-pyrazol-1-yl}butanoic acid], with < 100 nM.
`CCOCc1cnc(-c2cccc(Cc3nn(-c4cnn(C)c4)ccc3=O)c2)nc1` [Example 162, 3-{3-[5-(ethoxymethyl)pyrimidin-2-yl]benzyl}-1-(1-methyl-1H-pyrazol-4-yl)pyridazin-4(1H)-one]: the half-maximal inhibitory concentration (IC50) is < 100 nM.
As for `O=C(Nc1cccc(Cc2nn(-c3cc(F)c(F)c(F)c3)ccc2=O)c1)OCC1CCOC1` (racemic) [Example 559, rac-tetrahydrofuran-3-ylmethyl (3-{[4-oxo-1-(3,4,5-trifluorophenyl)-1,4-dihydropyridazin-3-yl]methyl}phenyl)carbamate], the half-maximal inhibitory concentration (IC50) is < 100 nM.
On to `CCOc1cnc(-c2cccc(Cc3nn(-c4cccc(C(=O)N(C)C)c4)ccc3=O)c2)nc1` [Example 726, 3-{3-[3-(5-Ethoxypyrimidin-2-yl)benzyl]-4-oxopyridazin-1(4H)-yl}-N,N-dimethylbenzamide], for which the IC50 was in the range of 100 to 1000 nM.
In the case of `COCCOc1cnc(-c2cccc(Cc3nn(-c4cncc(C#N)c4)ccc3=O)c2)nc1` [Example 132, 5-[3-{3-[5-(2-methoxyethoxy)pyrimidin-2-yl]benzyl}-4-oxopyridazin-1(4H)-yl]pyridine-3-carbonitrile], the IC50 is < 100 nM.
Then `COCCC(=O)Nc1cnc(-c2cccc(Cc3nn(-c4cnn(C)c4)ccc3=O)c2)nc1` [Example 458, 3-Methoxy-N-[2-(3-{[1-(1-methyl-1H-pyrazol-4-yl)-4-oxo-1,4-dihydropyridazin-3-yl]methyl}phenyl)pyrimidin-5-yl]propanamide], with < 100 nM.
Turning to `O=c1ccn(-c2ccc(Cl)cc2)nc1Cc1ccc2ncccc2c1` [Example 43, 1-(4-chlorophenyl)-3-(quinolin-6-ylmethyl)pyridazin-4(1H)-one], the half-inhibitory concentration (IC50) fell in the range of 100 to 1000 nM.
On to `CC(C)(O)COc1cnc(-c2cccc(Cc3nn(-c4ccc(F)c(F)c4)ccc3=O)c2)nc1` [Example 360, 1-(3,4-difluorophenyl)-3-{3-[5-(2-hydroxy-2-methylpropoxy)pyrimidin-2-yl]benzyl}pyridazin-4(1H)-one], for which the half-inhibitory concentration (IC50) is < 100 nM.
Then `Cn1cc(-n2ccc(=O)c(Cc3cccc(-c4ncc(CN5CCNCC5)cn4)c3)n2)cn1` [Example 433], with < 100 nM; and `Cn1cc(-n2ccc(=O)c(Cc3ccc4[nH]ncc4c3)n2)cn1` [Example 184, 3-(1H-Indazol-5-ylmethyl)-1-(1-methyl-1H-pyrazol-4-yl)pyridazin-4(1H)-one], with 100 to 1000 nM.
Turning to `CCC(=O)Nc1cnc(-c2cccc(Cc3nn(-c4cnn(C)c4)ccc3=O)c2)nc1` [Example 460, N-[2-(3-{[1-(1-methyl-1H-pyrazol-4-yl)-4-oxo-1,4-dihydro-pyridazin-3-yl]methyl}phenyl)pyrimidin-5-yl}propanamide], the half-inhibitory concentration (IC50) is < 100 nM.
Then `CCOc1cnc2ccc(Cc3nn(-c4cnn(C)c4)ccc3=O)cc2c1` [Example 59, 3-[(3-ethoxyquinolin-6-yl)methyl]-1-(1-methyl-1H-pyrazol-4-yl)pyridazin-4(1H)-one], with 100 to 1000 nM.
Then `N#Cc1cccc(-n2ccc(=O)c(Cc3cccc(NC(=O)OCCN4CCOCC4)c3)n2)c1` [Example 597, 2-morpholin-4-ylethyl (3-{[1-(3-cyanophenyl)-4-oxo-1,4-dihydropyridazin-3-yl]methyl}phenyl)carbamate], with < 100 nM.
The same measure for `CN1CCN(CCCOC(=O)Nc2cccc(Cc3nn(-c4cc(F)c(F)c(F)c4)ccc3=O)c2)CC1` [Example 511, 3-(4-methylpiperazin-1-yl)propyl(3-{[4-oxo-1-(3,4,5-trifluorophenyl)-1,4-dihydropyridazin-3-yl]methyl}phenyl)carbamate]: < 100 nM.
As to `COCCOc1cnc(-c2cccc(Cc3nn(-c4cnn(C)c4F)cc(F)c3=O)c2)nc1` [Example 751, 5-Fluoro-1-(5-fluoro-1-methyl-1H-pyrazol-4-yl)-3-{3-[5-(2-methoxyethoxy)pyrimidin-2-yl]benzyl}pyridazin-4(1h)-one], the IC50 is < 100 nM.
In the case of `CCc1cnc(-c2cccc(C(C)c3nn(-c4ccc(F)c(F)c4)ccc3=O)c2)nc1` (single isomer, unassigned) [Example 231, 1-(3,4-difluorophenyl)-3-{(1R or S)-1-[3-(5-ethylpyrimidin-2-yl)phenyl]ethyl}pyridazin-4(1H)-one], the IC50 was < 100 nM.
For `CCC(c1cccc(-c2ncc(OC)cn2)c1)c1nn(-c2cnn(C)c2)ccc1=O` (racemic) [Example 225, rac-3-{1-[3-(5-methoxypyrimidin-2-yl)phenyl]propyl}-1-(1-methyl-1H-pyrazol-4-yl)pyridazin-4(1H)-one], the IC50 was < 100 nM.
Then `CC(C)COC(=O)Nc1cccc(Cc2nn(-c3cnn(CCCC(=O)N4CCOCC4)c3)ccc2=O)c1` [Example 698, 2-methylpropyl [3-({1-[1-(4-morpholin-4-yl-4-oxobutyl)-1H-pyrazol-4-yl]-4-foundoxo-1,4-dihydropyridazin-3-yl}methyl)phenyl] carbamate], with < 100 nM; and `Cn1cc(-n2ccc(=O)c(Cc3cccc(-c4ncc(OCC5CC5)cn4)c3)n2)cn1` [Example 278, 3-{3-[5-(cyclopropylmethoxy)pyrimidin-2-yl]benzyl}-1-(1-methyl-1H-pyrazol-4-yl)pyridazin-4(1H)-one], with < 100 nM; and `COCCOC(=O)Nc1cccc(Cc2nn(-c3cc(F)cc(Cl)c3)ccc2=O)c1` [Example 509, 2-methoxyethyl (3-{[1-(3-chloro-5-fluorophenyl)-4-oxo-1,4-dihydropyridazin-3-yl]methyl}phenyl)carbamate], with < 100 nM.

The values above are taken from patent US20120264735A1 (priority 2009, published 2012).
